Laboratory results taken from PMC5120204, “Identification of an orally active small-molecule PTHR1 agonist for the treatment of hypoparathyroidism” (Nature Communications, 2016).

Columns and labels:
[1] = target: T1, hPTHR1 (Homo sapiens, UniProt Q03431); test: Phospholipase C activity assay ([3H]-inositol phosphate) in COS-7 cells expressing hPTHR1; assay type: cell-based; conditions: COS-7 cells expressing hPTHR1, 40 min; concentration that achieves the EC50 for hPTH(1–34)
T1 construct: similar to that of cells expressing full-length hPTHR1; expressed in transfected cells; host or cells: COS-7 (transient, FuGENE HD)
T1 sequence (Q03431 27-593 E93Y/D94P/K95Y/E96D/A97V/T99D/G100Y/S101A): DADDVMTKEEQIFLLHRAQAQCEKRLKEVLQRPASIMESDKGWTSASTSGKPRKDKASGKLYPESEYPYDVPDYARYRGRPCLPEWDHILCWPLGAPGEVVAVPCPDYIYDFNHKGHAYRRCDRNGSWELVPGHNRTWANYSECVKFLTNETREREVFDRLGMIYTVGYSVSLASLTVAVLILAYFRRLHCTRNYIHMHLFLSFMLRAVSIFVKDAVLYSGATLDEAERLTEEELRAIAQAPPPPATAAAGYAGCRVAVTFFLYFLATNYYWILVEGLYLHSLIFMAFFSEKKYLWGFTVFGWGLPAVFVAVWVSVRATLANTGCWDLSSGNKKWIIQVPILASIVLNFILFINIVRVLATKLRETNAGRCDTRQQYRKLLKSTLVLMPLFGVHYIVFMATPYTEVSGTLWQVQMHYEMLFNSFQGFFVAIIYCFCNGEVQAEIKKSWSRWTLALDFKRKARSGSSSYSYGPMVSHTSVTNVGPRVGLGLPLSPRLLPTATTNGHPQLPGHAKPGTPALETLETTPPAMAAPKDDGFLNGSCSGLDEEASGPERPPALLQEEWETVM
Experimental: COS-7 cells (ATCC) were seeded into a 96-well flat-bottomed plate (1.4 × 10^4 cells per 100 μl per well) and incubated overnight. The next day, the COS-7 cells were transfected by adding 10 μl of a mixture of hPTHR1 plasmid or empty vector (0.1 μg per well), FuGENE HD Transfection Reagent (0.4 μl per well, Promega), and Opti-MEM I Reduced Serum Medium (10 μl per well, Life Technologies) to each well. On the second day after the cells were seeded into the plate, the culture medium in the wells was discarded, and 100 μl of ^3H-myoinositol/0.1% BSA/DMEM adjusted to 111 kBq ml^−1 (PerkinElmer, Inc.) was added to each well. […] After that, the ^3H radioactivity was measured using a liquid scintillation analyzer. EC50 values were determined from three independent experiments in […] by a non-linear regression Emax model (JMP ver.9.0.2, SAS Institute). […] The geometric means of the EC50 values obtained in three experiments in duplicate were calculated using Microsoft Office Excel 2007.

[2] = system: fetal rat long bones; test: Fetal rat long bone cultures, 45Ca release; assay type: cell-based; conditions: organ culture
Experimental: Bone-resorbing activity was assessed by fetal rat long bone cultures. ^45CaCl2 (1,480 kBq, PerkinElmer) was subcutaneously injected into a pregnant Crl:CD(SD) rat (Charles River Laboratories) on its 18th day of gestation. At 48 h after the injection, the pregnant rat was euthanized, and the ulnae and radial bones were isolated from euthanized fetal rats. The long bones were placed on nylon mesh and covered with paraffin paper, and a floating culture in BGJb medium (Life Technologies) containing antibiotic–antimycotic (× 1, Life Technologies) was carried out for 3 days at 37 °C in 95% air and 5% CO2 atmosphere. On the 4th day, the medium was replaced with fresh BGJb medium containing hPTH(1–34) (1 nmol l^−1 to 1 μmol l^−1) or PCO371 (0.1 nmol l^−1 to 3 μmol l^−1) or vehicle (0.1% DMSO and 0.1 mmol l^−1 acetic acid at final concentration) and cultured for a further 4 days at 37 °C. Bone samples were then treated with 10% TCA (500 μl/bone) overnight at 37 °C. Radioactivity of the bone and the medium samples was measured. Four to five long bones were used for each individual dose. ^45Ca release (%) was calculated by the following formula (equation (4)): […]

[3] = system: normal dogs; test: Preclinical toxicology studies; assay type: in vivo, dog

Cc1cc(N2C(=O)NC(=O)C2(C)C)cc(C)c1CCS(=O)(=O)N1CCC2(CC1)N=C(c1ccc(OC(F)(F)F)cc1)NC2=O [PCO371, 1-{3,5-dimethyl-4-[2-({4-oxo-2-[4-(trifluoromethoxy)phenyl]-1,3,8-triazaspiro[4.5]dec-1-en-8-yl}sulfonyl)ethyl]phenyl}-5,5-dimethylimidazolidine-2,4-dione]
EC50 [1]: 17 µM | concentration able to stimulate 45Ca release from prelabeled bones [2]: ≥ 1 µmol/L | serious side effects ([3]; one-month toxicology studies in normal dogs): not any serious side effects | serious side effects ([3]; preclinical toxicology studies): no serious side effects
